Assay results: patent US8247211B2, “Glycopeptide antibiotics” (American Cyanamid Company, priority 2001, dated 2012)
Converted amounts (≈) assume the structure as drawn.

Columns and labels:
Assay in all cases: In vitro antibacterial evaluation: minimum inhibitory concentration (MIC), broth dilution method
Type in all cases: cell-based
Enterococcus sp. = details: 18 hours at 35° C.
Procedure, shortened: (§1)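 MIC read as lowest drug level preventing visible growth. Organisms at 5×10^5 CFU/mL were exposed to a 64-0.06 μg/mL dilution series in Muller-Hinton II […] following NCCLS broth dilution standard M7-A2.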

Escherichia coli = details: 18 hours at 35° C.
Procedure, shortened: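 Using Muller-Hinton II […] and an inoculum of 5×10^5 CFU/mL, antibiotic dilutions from 64 down to 0.06 μg/mL were tested following NCCLS M7-A2. The MIC is the lowest concentration inhibiting growth, including in methicillin-, penicillin- or vancomycin-resistant clinical isolates.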

Staphylococcus sp. = system: Staphylococcus sp.
Procedure, shortened: as §1

Streptococcus sp. = details: 18 hours at 35° C.
Procedure, shortened: as §1

[1] = broth dilution, inoculum 5×10^5 CFU/mL

- MIC Enterococcus avium (GC 4558) (Enterococcus sp.; Enterococcus avium (GC 4558)): 2 µg/mL (≈ 1.45 µM)
- MIC Enterococcus faecalis (ATCC 29212) (Enterococcus sp.; Enterococcus faecalis (ATCC 29212)): 4 µg/mL (≈ 2.91 µM)
- MIC Enterococcus faecalis (GC 2242) (Enterococcus sp.; Enterococcus faecalis (GC 2242)): 2 µg/mL (≈ 1.45 µM)
- MIC Enterococcus faecalis (GC 2691) (Enterococcus sp.; Enterococcus faecalis (GC 2691)): 4 µg/mL (≈ 2.91 µM)
- MIC Enterococcus faecalis (GC 3059) (Enterococcus sp.; Enterococcus faecalis (GC 3059)): 4 µg/mL (≈ 2.91 µM)
- MIC Enterococcus faecalis (GC 4552) (Enterococcus sp.; Enterococcus faecalis (GC 4552)): 4 µg/mL (≈ 2.91 µM)
- MIC Enterococcus faecalis (GC 4553) (Enterococcus sp.; Enterococcus faecalis (GC 4553)): 4 µg/mL (≈ 2.91 µM)
- MIC Enterococcus faecalis (GC 4554) (Enterococcus sp.; Enterococcus faecalis (GC 4554)): 4 µg/mL (≈ 2.91 µM)
- MIC Enterococcus faecalis (GC 6189) (Enterococcus sp.; Enterococcus faecalis (GC 6189)): 2 µg/mL (≈ 1.45 µM)
- MIC Enterococcus faecium (GC 2243) (Enterococcus sp.; Enterococcus faecium (GC 2243)): 4 µg/mL (≈ 2.91 µM)
- MIC Enterococcus faecium (GC 4556) (Enterococcus sp.; Enterococcus faecium (GC 4556)): 4 µg/mL (≈ 2.91 µM)
- MIC Enterococcus faecium (GC 4557) (Enterococcus sp.; Enterococcus faecium (GC 4557)): 2 µg/mL (≈ 1.45 µM)
- MIC Enterococcus avium (GC 4558) (Enterococcus sp.; [1]): 2 µg/mL (≈ 1.45 µM)
- MIC Enterococcus faecalis (ATCC 29212) (Enterococcus sp.; [1]): 4 µg/mL (≈ 2.91 µM)
- MIC Enterococcus faecalis (GC 2242) (Enterococcus sp.; [1]): 2 µg/mL (≈ 1.45 µM)
- MIC Enterococcus faecalis (GC 2691) (Enterococcus sp.; [1]): 4 µg/mL (≈ 2.91 µM)
- MIC Enterococcus faecalis (GC 3059) (Enterococcus sp.; [1]): 4 µg/mL (≈ 2.91 µM)
- MIC Enterococcus faecalis (GC 4552) (Enterococcus sp.; [1]): 4 µg/mL (≈ 2.91 µM)
- MIC Enterococcus faecalis (GC 4553) (Enterococcus sp.; [1]): 4 µg/mL (≈ 2.91 µM)
- MIC Enterococcus faecalis (GC 4554) (Enterococcus sp.; [1]): 4 µg/mL (≈ 2.91 µM)
- MIC Enterococcus faecalis (GC 6189) (Enterococcus sp.; [1]): 2 µg/mL (≈ 1.45 µM)
- MIC Enterococcus faecium (GC 2243) (Enterococcus sp.; [1]): 4 µg/mL (≈ 2.91 µM)
- MIC Enterococcus faecium (GC 4556) (Enterococcus sp.; [1]): 4 µg/mL (≈ 2.91 µM)
- MIC Enterococcus faecium (GC 4557) (Enterococcus sp.; [1]): 2 µg/mL (≈ 1.45 µM)
- MIC Escherichia coli (ATCC 25922) (Escherichia coli; Escherichia coli (ATCC 25922)): 64 µg/mL (≈ 46.5 µM)
- MIC Escherichia coli (GC 4559) (Escherichia coli; Escherichia coli (GC 4559)): 32 µg/mL (≈ 23.3 µM)
- MIC Escherichia coli (GC 4560) (Escherichia coli; Escherichia coli (GC 4560)): 1 µg/mL (≈ 0.727 µM)
- MIC Staphylococcus aureus (ATCC 29213) (Staphylococcus sp.; strain ATCC 29213): 2 µg/mL (≈ 1.45 µM)
- MIC Staphylococcus aureus (GC 1131) (Staphylococcus sp.; strain GC 1131): 2 µg/mL (≈ 1.45 µM)
- MIC Staphylococcus aureus (GC 3051) (Staphylococcus sp.; strain GC 3051): 1 µg/mL (≈ 0.727 µM)
- MIC Staphylococcus aureus (GC 3053) (Staphylococcus sp.; strain GC 3053): 2 µg/mL (≈ 1.45 µM)
- MIC Staphylococcus aureus (GC 4541) (Staphylococcus sp.; strain GC 4541): 2 µg/mL (≈ 1.45 µM)
- MIC Staphylococcus aureus (GC 4542) (Staphylococcus sp.; strain GC 4542): 1 µg/mL (≈ 0.727 µM)
- MIC Staphylococcus aureus-SMITH (GC 4543) (Staphylococcus sp.; strain GC 4543): 1 µg/mL (≈ 0.727 µM)
- MIC Staphylococcus aureus (GC 4544) (Staphylococcus sp.; strain GC 4544): 2 µg/mL (≈ 1.45 µM)
- MIC Staphylococcus aureus (GC 4545) (Staphylococcus sp.; strain GC 4545): 1 µg/mL (≈ 0.727 µM)
- MIC Coagulase Negative Staphylococcus (GC 4547) (Staphylococcus sp.; strain GC 4547): 2 µg/mL (≈ 1.45 µM)
- MIC Coagulase Negative Staphylococcus (GC 4548) (Staphylococcus sp.; strain GC 4548): 0.5 µg/mL (≈ 0.364 µM)
- MIC Coagulase Negative Staphylococcus (GC 4549) (Staphylococcus sp.; strain GC 4549): 0.5 µg/mL (≈ 0.364 µM)
- MIC Coagulase Negative Staphylococcus (GC 4551) (Staphylococcus sp.; strain GC 4551): 1 µg/mL (≈ 0.727 µM)
- MIC Streptococcus agalactiae (GC 4564) (Streptococcus sp.; Streptococcus agalactiae (GC 4564)): <0.12 µg/mL
- MIC Streptococcus pneumoniae (ATCC 6301) (Streptococcus sp.; Streptococcus pneumoniae (ATCC 6301)): <0.12 µg/mL
- MIC Streptococcus pneumoniae (GC 1894) (Streptococcus sp.; Streptococcus pneumoniae (GC 1894)): <0.12 µg/mL
- MIC Streptococcus pneumoniae (GC 4565) (Streptococcus sp.; Streptococcus pneumoniae (GC 4565)): <0.12 µg/mL
- MIC Streptococcus pyogenes (GC 4563) (Streptococcus sp.; Streptococcus pyogenes (GC 4563)): <0.12 µg/mL
- MIC Streptococcus agalactiae (GC 4564) (Streptococcus sp.; [1]): <0.12 µg/mL
- MIC Streptococcus pneumoniae (ATCC 6301) (Streptococcus sp.; [1]): <0.12 µg/mL
- MIC Streptococcus pneumoniae (GC 1894) (Streptococcus sp.; [1]): <0.12 µg/mL
- MIC Streptococcus pneumoniae (GC 4565) (Streptococcus sp.; [1]): <0.12 µg/mL
- MIC Streptococcus pyogenes (GC 4563) (Streptococcus sp.; [1]): <0.12 µg/mL
Structure (SMILES): N=C1NCC(C(O)C2NC(=O)C(Cc3ccc(OC4OC(CO)C(OC5OC6COC(c7ccccc7)OC6C(O)C5O)C(O)C4O)cc3)NC(=O)C(CC3CCCCC3)NC(=O)CNC(=O)C(CO)NC(=O)C(C(O)C3CNC(=N)N3C3OC(CO)C(O)C(O)C3O)NC2=O)N1 (stereo not drawn) [Example 199, Cyclo[3-cyclohexylalanyl-O-[4-O-(4,6-O-benzylidenehexopyranosyl)hexopyranosyl]tyrosyl-3-(2-iminoimidazolidin-4-yl)seryl-3-(3-hexopyranosyl-2-iminoimidazolidin-4-yl)-seryl-serylglycyl]]
- MIC Staphylococcus haemolyticus (GC 4546) (Staphylococcus sp.; strain GC 4546): 1 µg/mL (≈ 0.727 µM)
